Patent publication US20210238598A1, “COMPOSITIONS, SYSTEMS, AND METHODS FOR BASE DIVERSIFICATION” (Pairwise Plants Services, Inc., priority 2020, published 2021)

Target: T1, APE1 (Homo sapiens, UniProt P27695)
T1 construct: endogenous in cells; host or cells: HEK293T (ATCC CRL-3216)
Test: APE1 inhibitor effect on indels and base diversification by AID or pmCDA1 fused to Cas9 nickase (D10A), HTS
Assay type: cell-based
Conditions: HEK293T cells, 100 μM and 200 μM, 3d, FIG. 6
Method: APE1 was inhibited by using CRT0044876 (Scheme 1), which is a potent and well-known APE1 inhibitor.
To ascertain whether this compound improves base diversification profile, HEK293T cells were treated with AID or pmCDA1 fused to Cas9 nickase (D10A) in the presence of CRT0044876. After 3d, the cells were harvested and analyzed through high-throughput sequencing (HTS).

T1 sequence (P27695 whole entry): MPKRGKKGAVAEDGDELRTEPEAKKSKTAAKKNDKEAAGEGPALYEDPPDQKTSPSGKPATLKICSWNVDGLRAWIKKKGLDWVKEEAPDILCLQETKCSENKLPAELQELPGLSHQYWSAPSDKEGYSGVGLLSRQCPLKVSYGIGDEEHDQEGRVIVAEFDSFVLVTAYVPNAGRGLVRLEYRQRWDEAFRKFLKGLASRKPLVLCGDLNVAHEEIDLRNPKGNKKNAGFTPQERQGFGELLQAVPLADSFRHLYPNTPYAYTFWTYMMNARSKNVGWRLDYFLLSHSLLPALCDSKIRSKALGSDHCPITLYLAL

O=C(O)c1cc2cccc([N+](=O)[O-])c2[nH]1 [CRT0044876]
base diversification rate: some decrease | amount of indel generated (multiple target sites): significant decrease
